In PubChem BioAssay (NCI) one finds TGI and GI50 data, which are given here for 13 compounds.

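Exposure lasted 48 hours, with cells grown in 96-well plates and compounds tested at five concentrations. Abbreviation: GI50, concentration required for 50% inhibition of growth. Definition used: TGI = concentration required for complete inhibition of growth.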 Where only a bound is given, the exact number is not on record here.

Assay in all cases: growth of human tumour cells (NCI), 48 h
For assay [1], the system named is ACHN renal.
In assay [2] the test system is HT29 colon.
For assay [3], the system named is TK-10 renal.
Assay [4] has as its system HCC-2998 colon.
Assay [5] concerns HOP-62 NSCLC.
Assay [6] relates to SNB-75 CNS.
The subject of assay [7] is CCRF-CEM leukemia.
Assay [8] relates to HCT-116 colon.
Assay [9] concerns NCI-H522 lung.
Assay [10] deals with KM12 colon.

Consider `CC(=O)Oc1cc(OC(C)=O)c2cc3c(cc2c1OC(C)=O)C(=O)C1(CCCC1)C3=O`, for which the TGI in [1] came out at 31.5 µM; in assay [2], 30 µM; in [3] it was 31.3 µM; in assay [4], 37.2 µM; in assay [5] it was 42 µM; in assay [6], 30 µM.
Consider `O=c1cc(-c2ccc[nH]2)[nH]c2cc3c(cc12)OCO3`, for which the TGI in assay [1] was greater than 100 µM; in [2], greater than 100 µM; in assay [3] it was greater than 100 µM; in assay [4] it was 86.5 µM; in assay [5], 93.5 µM; in [7] it was greater than 100 µM. In addition, the TGI was 68.9 µM in assay [6] and greater than 100 µM in [8]. The GI50 in assay [8] was 29.4 µM.
With `O=C(O)CCc1nc(-c2ccccc2)c(-c2ccccc2)o1`, the TGI in assay [1], in [2], in assay [3], in assay [5], in [9] and in [7] was greater than 100 µM each time. Moreover, the TGI in [6], in assay [10] and in assay [8] was greater than 100 µM in each case.
In the case of `O/N=C1/C(=C/c2ccccc2)CCCC1C(NO)c1ccccc1` (stereo unspecified), the TGI in assay [1], in assay [2], in assay [3], in [9], in assay [6] and in assay [10] was greater than 100 µM each time. The same compound registered a TGI in assay [8] greater than 100 µM.
With `COc1ccc(NCc2c(O)ccc3ccccc23)cc1`, the TGI is 31.2 µM in assay [1]; greater than 100 µM in assay [2]; 38.6 µM in assay [3]; greater than 100 µM in [5]; 28 µM in assay [9]; greater than 100 µM in assay [6]. In addition, the TGI in [10] and in assay [8] was greater than 100 µM throughout.
Consider `CC(=O)NNc1nc(C)c(C(/C=C/c2ccc(Cl)cc2)=N/NC(=S)NN)s1`, for which the TGI in assay [1], in assay [2], in [3], in [5], in [9] and in assay [7] was greater than 100 µM throughout. In addition, the TGI in [6], in [10] and in assay [8] was greater than 100 µM each time.
For `Cn1c(=O)c2[nH]cnc2n(CC(=O)O)c1=O`, the TGI in assay [1], in assay [2], in [3], in assay [5], in assay [9] and in assay [7] was greater than 100 µM each time. Besides, the TGI in [6], in assay [10] and in [8] was greater than 100 µM throughout.
Take `ClC1=C(Cl)C(Cl)=C(Cl)C1=Cc1ccc(Cl)cc1Cl`: the GI50 was 0.33 µM in assay [2]; 0.341 µM in assay [4]; 0.396 µM in assay [5]; 0.352 µM in assay [7]; 1.9 µM in assay [6]; 0.686 µM in assay [10]. Besides, in assay [8], the GI50 is 0.206 µM. Besides, the TGI in assay [2] amounted to 6.4 µM; in assay [4] it was 1.14 µM; in assay [5], 3.57 µM; in [7], 3.98 µM; in [6] it was 5.51 µM; in [10], 2.08 µM. In addition, in assay [8], the TGI came out at 0.494 µM.
As to `CC1CCC(C#N)(NOC2=NCCN2)CC1` (stereo unspecified), the GI50 in assay [1] is 15.2 µM; in assay [2] it was greater than 100 µM; in [3], 26.3 µM; in assay [9], 39.6 µM; in assay [7], 56 µM; in [6], greater than 100 µM. Further, the GI50 is 42.6 µM in assay [10] and 63.8 µM in [8]. The TGI is 30.1 µM in [1]; greater than 100 µM in assay [2]; greater than 100 µM in [3]; greater than 100 µM in assay [9]; greater than 100 µM in [7]; greater than 100 µM in assay [6]. The TGI in [10] and in [8] was greater than 100 µM each time.
With `COC(=O)c1cccc2c1Oc1ccccc1S2`, the TGI was greater than 100 µM in [1]; 75.2 µM in assay [2]; greater than 100 µM in [3]; greater than 100 µM in assay [5]; greater than 100 µM in [9]; 56.9 µM in assay [7]. Moreover, the results for the TGI in [6], in assay [10] and in [8] were 71.1 µM, 36.4 µM and greater than 100 µM, respectively.
With `O=C(Cc1nc2ccccc2s1)C(=O)Nc1ccc(Cl)cc1Cl`, the TGI in assay [1], in assay [2], in assay [3], in assay [4], in assay [5] and in assay [6] was greater than 100 µM throughout. Further, the TGI in assay [10] and in [8] was greater than 100 µM in each case.
Regarding `CN(C)CCC(=O)NCc1c2nc3ccccc3nc2n2ccccc12`, the GI50 in [1] is greater than 100 µM; in [2], 35.9 µM; in assay [3], 16 µM; in assay [4] it was 33.8 µM; in [5], 24 µM; in assay [9] it was 66.1 µM. The GI50 in assay [7] was 25.7 µM; in assay [10], 26 µM; in [8] it was 21 µM. The TGI in [1] was greater than 100 µM; in assay [2], greater than 100 µM; in [3] it was 47.6 µM; in assay [4], greater than 100 µM; in assay [5] it was greater than 100 µM; in [9] it was greater than 100 µM. Further, the TGI in assay [7] is 78.8 µM; in assay [10], greater than 100 µM; in assay [8], 59.7 µM.
`COC(=O)C(C(=O)C(=O)Nc1ccc(C)cc1C)c1nc2ccc([N+](=O)[O-])cc2[nH]c1=O` (stereo unspecified): the TGI in assay [1], in [2], in assay [3], in [5], in assay [9] and in assay [7] was greater than 100 µM each time. Further, the TGI in assay [6], in [10] and in assay [8] was greater than 100 µM each time.
